The values below come from patent US10301294B2, “Compounds for the treatment of tuberculosis” (priority 2013, dated 2019).

Data set [1] deals with carbon-starved M. tuberculosis H37Rv. Nature of the data set: microbe, parasite or virus in culture. It counts as cell-based.
The subject of data set [2] is replicating M. tuberculosis H37Rv. Description: microbe, parasite or virus in culture. Conditions: for Against Replicating Mtb, % @ 125: at 125 uM; for Against Replicating Mtb, % @ 62: at 62 uM. It is filed as cell-based.
For data set [3] the test system is unchanged. It counts as cell-based. The settings on record: FIG. 1A; read-out: IC90 against replicating, logarithmically growing bacteria measured by OD600 (converted).
Data set [4] relates to carbon-starved M. tuberculosis H37Rv. Nature of the data set: Non-replicating IC90 determination by luciferase (carbon-starved cells). It is filed as cell-based.
The subject of the next data set is TB. Description: MIC of control anti-tuberculosis antibiotics. It counts as cell-based, M. tuberculosis. Conditions: Mycobacterium tuberculosis.
A short description of data set [5]: Cytotoxicity against Hek 293. It is filed as cell-based. Conditions: human, HEK293 cells, 26.0 uM highest concentration measured.
Data set [6] can be described thus: Cytotoxicity against HeLa. Conditions: human, HeLa cells, 26.0 uM highest concentration measured. It is filed as cell-based.
Data set [7] concerns replicating M. tuberculosis H37Rv. Description: microbe, parasite or virus in culture. It counts as cell-based. The settings on record: Mycobacterium tuberculosis, H37RV, three independent experiments in triplicate, read-out: TB Growth Inhibition Activity, IC90 Replicating_logarithmic (converted).
Data set [8] can be described thus: Cytotoxicity against HepG2. It counts as cell-based. Conditions: human, HepG2 cells, 26.0 uM highest concentration measured.
Setting [9] is: Mycobacterium tuberculosis, H37RV, non-replicating carbon-starved Mtb, luciferase, three independent experiments in triplicate, read-out: TB Growth Inhibition Activity, IC90 Non-replicating_luciferase.
Where [10] appears, read: Mycobacterium tuberculosis, H37RV, read-out: Against carbon starving non-replicating Mtb IC90.
Where [11] appears, read: Mycobacterium tuberculosis, H37RV, read-out: Against Replicating Mtb IC90.

Structures are written as SMILES. Where two headings read alike, the source gives them in different places. Bounds are passed on as bounds.

Turning to `Clc1ccc(-c2nnc(SCc3cn(-c4ccccc4)nn3)o2)cc1`, the IC90 in [1] (FIG. 1D, read-out: IC90 against non-replicating, starved cells by CFU/mL) is 1 µM; in [2] (FIG. 1B, read-out: IC90 against replicating, logarithmically growing bacteria measured by CFU/mL (converted)) it was greater than 62 µM; in data set [3] it was greater than 62 µM; in [4] (FIG. 1C, read-out: IC90 for non-replicating starved cells by luciferase assay), greater than 62 µM.
In the case of `NNC(=O)c1ccncc1` [INH, isoniazid], in the data set on TB, the minimal inhibitory concentration (MIC) (in general, the smallest concentration in the dilution series that meets the test's criterion for growth inhibition) worked out at 0.1 µg/mL.
For the compound `c1ccc(-c2nnc(SCc3cccnc3)o2)cc1` [drawing 143], the IC50 in data set [5], in data set [6] and in [8] was greater than 26 µM throughout. Moreover, the IC90 in data set [4] (setting [9]) was 8 µM; in [7] it was 125 µM.
With `c1ccc(-c2nnc(SCc3ccncc3)o2)cc1` [drawing 144], the IC50 in [5], in data set [6] and in [8] was greater than 26 µM throughout. Also, the IC90 in data set [4] (setting [9]) is 31 µM; in data set [7] it was 250 µM.
`COCCSc1nnc(-c2ccccc2)o1` [drawing 148]: the concentration for half-maximal inhibition (IC50) in data set [5], in data set [6] and in data set [8] was greater than 26 µM in each case. Also, the figures for the IC90 in data set [4] (setting [9]) and in data set [7] were 3 µM and 125 µM, respectively.
As to `Clc1ccc(-c2nnc(SCc3cn(Cc4ccccc4)nn3)o2)cc1` [drawing 156], the IC50 in data set [5], in data set [6] and in [8] was greater than 26 µM each time. The figures for the IC90 in data set [4] (setting [9]) and in data set [7] were 2 µM and greater than 62 µM, respectively.
In the case of `Clc1ccc(-c2nnc(SCc3cn(-c4ccccc4)nn3)o2)cc1` [drawing 164], the half-inhibitory concentration (IC50) in [5], in [6] and in data set [8] was greater than 26 µM each time. Moreover, the IC90 is 1 µM in [4] (setting [9]) and greater than 62 µM in [7].
For `c1ccc(-c2nnc(SCCC3OCCCO3)o2)cc1` [drawing 258], in [1] (setting [10]), the IC90 amounted to 10 µM.
On the same count and under the same terms, to `Fc1ccc(CSc2nnc(-c3ccccc3)o2)cc1` [drawing 259] belongs 62 µM.
Turning to `COCCSc1nnc(-c2ccccc2)o1` [drawing 260], the IC90 in [1] (setting [10]) amounted to 4 µM.
Take `c1ccc(-c2nnc(SCc3ccccn3)o2)cc1` [drawing 261]: in data set [1] (setting [10]), the IC90 is 4 µM. The “Against Replicating Mtb, % @ 125” value in data set [2] ([…]) is recorded as 99% @ 125.
As to `c1ccc(-c2nnc(SC3CCCCC3)o2)cc1` [drawing 262], the IC90 in data set [1] (setting [10]) was 31 µM.
As to `[O-][n+]1ccccc1CSc1nnc(-c2ccccc2)o1` [drawing 263], the “Against carbon starving non-replicating Mtb IC90 (uM)” value in data set [1] is “None”.
Take `[O-][S+](Cc1ccccn1)c1nnc(-c2ccc(Cl)cc2)o1` (centres unmarked) [drawing 264]: the IC90 in data set [1] (setting [10]) was 10 µM.
Turning to `COCC[S+]([O-])c1nnc(-c2ccc(Cl)cc2)o1` (centres unmarked) [drawing 265], the IC90 in data set [1] (setting [10]) amounted to 10 µM.
As for `Brc1ccc(-c2nnc(SCc3ccccn3)o2)cc1` [drawing 266], the IC90 in data set [1] (setting [10]) was less than 8 µM.
With `[O-][S+](Cc1ccccc1)c1nnc(-c2ccccc2)o1` (centres unmarked) [drawing 267], the IC90 in [1] (setting [10]) was determined as 4 µM. Also, the “Against Replicating Mtb, % @ 31” value in [2] ([…], at 31 uM) is listed as 100% @ 31.
As to `O=S(=O)(Cc1ccccc1)c1nnc(-c2ccccc2)o1` [drawing 268], the IC90 in [1] (setting [10]) came out at 62 µM.
For the compound `Fc1ccc(-c2nnc(SCc3ccccn3)o2)cc1` [drawing 269], in data set [1], the “Against carbon starving non-replicating Mtb, % @ 4” value is 99% @ 4. For the same compound, the “Against Replicating Mtb, % @ 16” value in data set [2] ([…], at 16 uM) came to 98.5% @ 16.
Consider `Fc1cccc(-c2nnc(SCc3ccccn3)o2)c1` [drawing 270], for which the results for the IC90 in data set [1] (setting [10]) and in [2] (setting [11]) were less than 8 µM and 31 µM, respectively.
As for `Brc1cccc(-c2nnc(SCc3ccccn3)o2)c1` [drawing 271], in [1] (setting [10]), the IC90 was less than 8 µM. Also, the “Against Replicating Mtb, % @ 62” value in [2] ([…]) is 96% @ 62.
As to `[O-][S+](Cc1cn(Cc2ccccc2)nn1)c1nnc(-c2ccc(Cl)cc2)o1` (centres unmarked) [drawing 272], the “Against carbon starving non-replicating Mtb, % @ 31” value in data set [1] ([…], at 31 uM) is given as 100% @ 31. The “Against Replicating Mtb, % @ 62” value in [2] ([…]) is recorded as 100% @ 62.
Regarding `Clc1ccc(-c2nnc(SCc3cn(Cc4ccccc4)nn3)o2)cc1` [drawing 273], the “Against carbon starving non-replicating Mtb, % @ 4” value in [1] is recorded as 99% @ 4. Besides, the “Against Replicating Mtb, % @ 125” value in data set [2] ([…]) is listed as 98% @ 125.
`COc1cccc(-c2nnc(SCc3ccccn3)o2)c1` [drawing 274]: in [1] ([…], at 16 uM), the “Against carbon starving non-replicating Mtb, % @ 16” value was 99% @ 16. Besides, in data set [2] ([…]), the “Against Replicating Mtb, % @ 62” value was found to be 99% @ 62.
For `COc1ccc(CSc2nnc(-c3ccc(Cl)cc3)o2)nc1` [drawing 275], in data set [1], the “Against carbon starving non-replicating Mtb, % @ 4” value is reported as 99% @ 4. The “Against Replicating Mtb, % @ 16 (7 d)” value in data set [2] ([…], at 16 uM, 7 d) is on record as 99.5% @ 16 (7 d).
Regarding `COC(=O)CCCOc1ccc(CSc2nnc(-c3ccc(Cl)cc3)o2)nc1` [drawing 276], in [1], the “Against carbon starving non-replicating Mtb, % @ 8” value is given as 99% @ 8. Moreover, the IC90 in data set [2] (setting [11]) came out at 31 µM.
Take `[N-]=[N+]=NCCOCCNC(=O)CCCOc1ccc(CSc2nnc(-c3ccc(Cl)cc3)o2)nc1` [drawing 277]: the “Against carbon starving non-replicating Mtb, % @ 8” value in data set [1] was found to be 98% @ 8.
Turning to `[N-]=[N+]=NCCOCCNC(=O)CCCOc1ccc(C[S+]([O-])c2nnc(-c3ccc(Cl)cc3)o2)nc1` (centres unmarked) [drawing 278], the “Against carbon starving non-replicating Mtb, % @ 8” value in data set [1] worked out at 97% @ 8.
For the compound `CO[C@H]1/C=C/O[C@@]2(C)Oc3c(C)c(O)c4c(O)c(c(/C=N/N5CCN(C)CC5)c(O)c4c3C2=O)NC(=O)/C(C)=C\C=C\[C@H](C)[C@H](O)[C@@H](C)[C@@H](O)[C@@H](C)[C@H](OC(C)=O)[C@@H]1C` [rifampin], the minimum inhibitory concentration (MIC) with TB was found to be 0.01 µg/mL.
